Source: patent publication US10414775B2 (Merck Sharp & Dohme Corp., priority 2016, dated 2019)

Target: T1, Human CYP8B1 (Homo sapiens, UniProt Q9UNU6)
T1 construct: tissue Xenotech; host or cells: human liver microsomes
T1 sequence (Q9UNU6 1-501): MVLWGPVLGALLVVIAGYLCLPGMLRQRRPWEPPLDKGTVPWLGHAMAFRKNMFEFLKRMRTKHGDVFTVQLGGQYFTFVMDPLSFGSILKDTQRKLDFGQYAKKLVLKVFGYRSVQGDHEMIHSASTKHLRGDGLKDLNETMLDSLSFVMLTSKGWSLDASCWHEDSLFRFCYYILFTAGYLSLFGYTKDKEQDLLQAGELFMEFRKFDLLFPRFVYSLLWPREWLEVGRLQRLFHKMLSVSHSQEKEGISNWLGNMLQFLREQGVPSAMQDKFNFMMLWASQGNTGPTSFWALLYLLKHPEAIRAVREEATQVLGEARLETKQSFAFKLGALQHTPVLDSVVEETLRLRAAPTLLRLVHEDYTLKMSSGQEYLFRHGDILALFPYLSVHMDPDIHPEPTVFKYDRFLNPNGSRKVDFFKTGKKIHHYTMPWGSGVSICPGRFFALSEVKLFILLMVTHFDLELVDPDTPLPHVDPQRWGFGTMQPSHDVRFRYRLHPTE
Experiment: Human Cyp8B1 Liver Microsome Assay
Format: biochemical
Conditions: human liver microsomes; substrate 7α-hydroxy-4-cholesten-3-one, NADPH; 30 min pre-incubation, 45 min reaction; RapidFire MS readout
Experimental: Human Cyp8B1 Liver Microsome Assay To a 384 well polypropylene plate (Corning 3656), 250 nl of inhibitor in 100% DMSO (1.25% final DMSO concentration) was pre-plated using an Echo liquid handler (Labcyte Inc.). Human liver microsomes (Xenotech) were diluted in of 0.1 M phosphate buffer, pH 7.4, at a concentration of 65 μg/ml and 15 μL was added to the 384 well plate. The plates were incubated at ambient room temperature for 30 minutes. After pre-incubation with inhibitor, the reaction was initiated by adding 5 μl of substrate solution (4.0 μM 7α-hydroxy-4-cholesten-3-one(Toronto Research Chemicals), 2 mM of NADPH (Sigma), 0.1 M phosphate buffer (pH 7.4). The reaction was carried out for 45 minutes at ambient room temperature and was quenched by the addition of 50 μl of acetonitrile+0.1% vol/vol formic acid (FA)+300 nM 7α-hydroxy-4-cholesten-3-one-d7 (Toronto Research Chemicals). The plates were sealed and centrifuged at 3000 rpm for 5 minutes. Plates were loaded onto the Agilent RapidFire RF300 HTMS system, wherein samples were sipped for 600 ms, and the sip sensor detection signals the diversion of sample from the loop onto a C4 solid phase extraction (SPE) cartridge, where salts are washed off for 2500 ms with a mobile phase of water with 0.1% vol/vol FA at a flow rate of 1.5 ml/min. The column path is switched, and the sample is eluted off the cartridge and flowed into the mass spectrometer for 3000 ms with a mobile phase of acetonitrile and 0.1% vol/vol FA at a flow rate of 1.25 ml/min. The aspirator tip was washed separately with water and acetonitrile between sample aspirations (each for 600 ms) to minimize carryover contamination. Mass spectrometry was carried out using a Sciex API4000 triple quadrupole mass spectrometer (Applied Biosystems, Concord, ON, Canada) equipped with electrospray ionization (ESI) operated in the positive-ion mode. The product 7α, 12α-dihydroxy-4-cholesten-3-one and internal standard 7α-hydroxy-4-cholsten-3-one-d7 were detected using multiple reaction monitoring (MRM) with Q1/Q3 transitions at m/z 417.3 to 381.3 and m/z 408.3 to 390.3, respectively, with a dwell time of 100 ms and a collision energy of 24 V for each transition. The mass spectrometer used an ESI voltage of 5000 V and a source temperature of 650° C. Extracted ion chromatograms for each transition were integrated and processed using the RapidFire Integrator software. The data for each well were normalized by monitoring product conversion with the ratio of AUCproduct/(AUCinternal standard). The data was then fitted to a four parameter logistic fit using ActivityBase Software to calculate an IC50 of the inhibitor.

| Compound | IC50 [nM] |
| --- | --- |
| C[C@@H]1CN(c2ccnc3cc(O)ccc23)CC[C@@H]1C(=O)N1CCn2c(nnc2C(F)(F)F)C1 [Example 38, [(3S,4S)-1-(7-hydroxyquinolin-4-yl)-3-methylpiperidin-4-yl][3-(trifluoromethyl)-5,6-dihydro[1,2,4]triazolo[4,3-a]pyrazin-7(8H)-yl]methanone] | 2890 |
| C[C@@H]1CN(c2ccnc3ccc(F)cc23)CC[C@@H]1C(=O)N1CCn2c(nnc2C(F)(F)F)C1 [Example 14, [(3S,4S)-1-(6-fluoroquinolin-4-yl)-3-methylpiperidin-4-yl][3-(trifluoromethyl)-5,6-dihydro[1,2,4]tria-zolo[4,3-a]pyrazin-7(8H)-yl]methanone] | 52 |
| C[C@@H]1CN(c2ccnc3c2CCN(CC(F)(F)F)C3)CC[C@@H]1C(=O)N1CCn2c(nnc2C(F)(F)F)C1 [Example 63, ((3S,4S)-3-methyl-1-(7-(2,2,2-trifluoroethyl)-5,6,7,8-tetrahydro-1,7-naphthyridin-4-yl)piperidin-4-yl)(3-(trifluoromethyl)-5,6-dihydro-[1,2,4]triazolo[4,3-a]pyrazin-7(8H)-yl)methanone] | 120 |
| C[C@@H]1CN(c2ccnc3cc(OCc4ccccc4)ccc23)CC[C@@H]1C(=O)N1CCn2c(nnc2C(F)(F)F)C1 [Example 30] | 3.91 |
| C[C@@H]1CN(c2ccnc3cc(C(F)F)ccc23)CC[C@@H]1C(=O)N1CCn2c(nnc2C(F)(F)F)C1 [Example 58, ((3S,4S)-1-(7-(difluoromethyl)quinolin-4-yl)-3-methylpiperidin-4-yl)(3-(trifluoromethyl)-5,6-dihydro-[1,2,4]triazolo[4,3-a]pyrazin-7(8H)-yl)methanone] | 5.97 |
| C[C@@H]1CN(c2ccnc3cc(Cl)ccc23)CC[C@@H]1C(=O)N1CCn2c(nnc2C(F)(F)F)C1 [Example 21, [(3S,4S)-1-(7-chloroquinolin-4-yl)-3-methylpiperidin-4-yl][3-(trifluoromethyl)-5,6-dihydro[1,2,4]tria-zolo[4,3-a]pyrazin-7(8H)-yl]methanone] | 6.3 |
| C[C@@H]1CN(c2ccnc3cc(C(F)(F)F)ccc23)CC[C@@H]1C(=O)N1CCn2c(nnc2C(F)(F)F)C1 [Example 12, {(3S,4S)-3-methyl-1-[7-(trifluoromethyl)quinolin-4-yl]piperidin-4-yl}[3-(trifluoromethyl)-5,6-dihydro[1,2,4]triazolo[4,3-a]pyrazin-7(8H)-yl]methanone] | 5.2 |
| Cc1cc(N2CC[C@H](C(=O)N3CCn4c(nnc4C(F)(F)F)C3)[C@H](C)C2)c2cc(F)cc(F)c2n1 [Example 17, [(3S,4S)-1-(6,8-difluoro-2-methylquinolin-4-yl)-3-methylpiperidin-4-yl][3-(trifluoromethyl)-5,6-dihydro[1,2,4]tria-zolo[4,3-a]pyrazin-7(8H)-yl]methanone] | 145 |
| C[C@@H]1CN(c2c(C(N)=O)cnc3cc(OCC4CC4)ccc23)CC[C@@H]1C(=O)N1CCn2c(nnc2C(F)(F)F)C1 [Example 39, 7-(cyclopropylmethoxy)-4-[(3S,4S)-3-methyl-4-{[3-(trifluoromethyl)-5,6-dihydro[1,2,4]triazolo[4,3-a]pyrazin-7(8H)-yl]carbonyl}piperidin-1-yl]quinoline-3-carboxamide] | 5.29 |
| C[C@@H]1CN(c2c(C(F)(F)F)cnc3ccccc23)CC[C@@H]1C(=O)N1CCn2c(nnc2C(F)(F)F)C1 [Example 5, ((3S,4S)-3-methyl-1-(3-(trifluoromethyl)quinolin-4-yl)piperidin-4-yl)(3-(trifluoromethyl)-5,6-dihydro-[1,2,4]triazolo[4,3-a]pyrazin-7(8H)-yl)methanone] | 1 |
| Cc1nc2ccc(F)cc2c(N2CC[C@H](C(=O)N3CCn4c(nnc4C(F)(F)F)C3)[C@H](C)C2)c1C [Example 16, [(3S,4S)-1-(6-fluoro-2,3-dimethylquinolin-4-yl)-3-methylpiperidin-4-yl][3-(trifluoromethyl)-5,6-dihydro[1,2,4]tria-zolo[4,3-a]pyrazin-7(8H)-yl]methanone] | 37 |
| CC1CN(c2ccnc3ccc(Cl)cc23)CCC1C(=O)N1CCn2c(nnc2C(F)(F)F)C1 (stereo not drawn) [Example 10, [1-(6-chloroquinolin-4-yl)-3-methylpiperidin-4-yl][3-(trifluoromethyl)-5,6-dihydro[1,2,4]triazolo[4,3-a]pyrazin-7(8H)-yl]methanone] | 8.5 |
| C[C@@H]1CN(c2ccnc3ccc(Cl)cc23)CC[C@@H]1C(=O)N1CCn2c(nnc2C(F)(F)F)C1 (single isomer, unassigned) [Example 11a] | 3.5 |

These reach a lower IC50. Values come first.

| IC50 [nM] | Compound |
| --- | --- |
| 0.8 | C[C@@H]1CN(c2c(Cl)cnc3c2CCN(CC(F)(F)F)C3)CC[C@@H]1C(=O)N1CCn2c(nnc2C(F)(F)F)C1 [Example 60, ((3S,4S)-1-(3-chloro-7-(2,2,2-trifluoroethyl)-5,6,7,8-tetrahydro-1,7-naphthyridin-4-yl)-3-methylpiperidin-4-yl)(3-(trifluoromethyl)-5,6-dihydro-[1,2,4]triazolo[4,3-a]pyrazin-7(8H)-yl)methanone] |
| 0.7 | C[C@@H]1CN(c2c(Cl)cnc3cc(-c4ncco4)ccc23)CC[C@@H]1C(=O)N1CCn2c(nnc2C(F)(F)F)C1 [Example 76, ((3S,4S)-1-(3-chloro-7-(oxazol-2-yl)quinolin-4-yl)-3-methylpiperidin-4-yl)(3-(trifluoromethyl)-5,6-dihydro-[1,2,4]triazolo[4,3-a]pyrazin-7(8H)-yl)methanone] |
| 0.44 | C[C@@H]1CN(c2c(Cl)cnc3cc(Br)ccc23)CC[C@@H]1C(=O)N1CCn2c(nnc2C(F)(F)F)C1 [Example 42, [(3S,4S)-1-(7-bromo-3-chloroquinolin-4-yl)-3-methylpiperidin-4-yl][3-(trifluoromethyl)-5,6-dihydro[1,2,4]triazolo[4,3-a]pyrazin-7(81)-yl]methanone] |
| 0.4 | C[C@@H]1CN(c2ccnc3cc(-c4ncco4)ccc23)CC[C@@H]1C(=O)N1CCn2c(nnc2C(F)(F)F)C1 [Example 73, ((3S,4S)-3-methyl-1-(7-(oxazol-2-yl)quinolin-4-yl)piperidin-4-yl)(3-(trifluoromethyl)-5,6-dihydro-[1,2,4]triazolo[4,3-a]pyrazin-7(8H)-yl)methanone] |
| 0.34 | C[C@@H]1CN(c2ccnc3cc(OC(F)(F)F)ccc23)CC[C@@H]1C(=O)N1CCn2c(nnc2C(F)(F)F)C1 [Example 29, {(3S,4S)-3-methyl-1-(7-(trifluoromethoxy)quinolin-4-yl]piperidin-4-yl}[3-(trifluoromethyl)-5,6-dihydro[1,2,4]tria-zolo[4,3-a]pyrazin-7(8H)-yl]methanone] |
| 0.31 | Cc1cnc2cc(C(C)(F)F)ccc2c1N1CC[C@H](C(=O)N2CCn3c(nnc3C(F)(F)F)C2)[C@H](C)C1 [Example 52, {(3S,4S)-1-[7-(1,1-difluoroethyl)-3-methylquinolin-4-yl]-3-methylpiperidin-4-yl}[3-(trifluoromethyl)-5,6-dihydro[1,2,4]triazolo[4,3-a]pyrazin-7(8H)-yl]methanone] |
| 0.25 | C[C@@H]1CN(c2c(F)cnc3cc(C(F)(F)F)ccc23)CC[C@@H]1C(=O)N1CCn2c(nnc2C(F)(F)F)C1 [Example 45, {(3S,4S)-1-[3-fluoro-7-(trifluoromethyl)quinolin-4-yl]-3-methylpiperidin-4-yl}[3-(trifluoromethyl)-5,6-dihydro[1,2,4]triazolo[4,3-a]pyrazin-7(8H)-yl]methanone] |
| 0.22 | C[C@@H]1CN(c2c(Cl)cnc3cc(OCC4CC4)ccc23)CC[C@@H]1C(=O)N1CCn2c(nnc2C(F)(F)F)C1 [Example 51] |
